Assay results reported in patent EP2276483B1, “SOLID FORMS COMPRISING (+)-2-[1-(3-ETHOXY-4-METHOXYPHENYL)-2-METHYLSULFONYLETHYL]-4-ACETYLAMINOISOINDOLINE-1,3-DIONE, COMPOSITIONS THEREOF, AND USES THEREOF” (CELGENE CORPORATION, priority 2008, dated 2009).

Key:
serum TNF-α = experiment: Mouse LPS-induced serum TNF-α inhibition; assay type: in vivo; conditions: po, read-out: Mouse LPS-induced serum TNF-α inhibition (ED50, mg/kg, p.o.)
Description: Compounds were tested in this animal model according to previously described methods (Corral et al., 1996, Mol. Med., 2:506-515). Mouse LPS-induced serum TNF-α inhibition (ED50, mg/kg, p.o.) = 0.05 for Compound A.

conscious ferret = experiment: Emesis and behavioral changes in conscious ferret; assay type: in vivo, ferrets (Mustela Pulorius Euro); conditions: for Ataxia / Backward walking / Flattened posture / Lip licking / Mouth clawing / Panting / Retches / Salivation / Vomits: severity (number of animals that responded)
Description: The conscious ferret model has been used to investigate anti-inflammatory, emetic and behavioral effects of PDE4 inhibitors when administered by the oral (p.o.) route. From these experiments, a therapeutic index (TI) for each PDE4 inhibitor may be determined. The TI has been calculated by dividing the threshold dose for causing emetic episodes and behavioral changes by the anti-inflammatory dose (dose that causes 50% inhibition of the LPS-induced neutrophilia).
PDE4 inhibitors were administered orally (p.o.), at doses initially of […], but subsequently up to 30 mg/kg in order to establish whether the TI was 10 or higher, and/or at lower doses to establish the minimum dose to cause 50% inhibition of neutrophilia. Ferrets were fasted overnight but allowed free access to water. The animals were orally dosed with vehicle or PDE4 inhibitor using a 15 cm dosing needle that was passed down the back of the throat into the oesophagus. After dosing, the animals were returned to holding cages fitted with Perspex doors to allow observation, and given free access to water. After dosing, the animals were constantly observed and any emesis or behavioral changes were recorded. The animals were allowed access to food 60 to 90 minutes after p.o. dosing.
Thirty minutes after p.o. dosing with compound or vehicle control, the ferrets were placed into sealed Perspex containers and exposed to an aerosol of LPS (100 µg/ml) for 10 minutes. Aerosols of LPS were generated by a nebulizer (DeVilbiss, USA) and this was directed into the Perspex exposure chamber. Following a 10 minute exposure period, the animals were returned to the holding cages and allowed free access to water, and at a later stage, food. Observation continued for a period of at least 2.5 hours post p.o. dosing and emetic episodes and behavioral changes were recorded.
2. Emetic episodes - the number of vomits and retches were counted.
3. Behavioral changes - the following behavioral effects were noted: salivation, panting, mouth clawing, flattened posture, ataxia, arched back and backward walking. Any behavioral changes were semi-quantified by applying a severity rating (mild, moderate or severe).
4. The TI was calculated as the highest dose found to not cause emetic episodes divided by the lowest dose found to inhibit pulmonary neutrophilia by 50% or more.
Numbers in parentheses refer to the number of animals that responded. The numbers of animals in each group range from 4 to 22.
From these experiments, a therapeutic index (TI) was determined for each compound by dividing the threshold dose for inducing emetic episodes by the ED50 value for inhibiting the pulmonary neutrophilia. […] Table 4. Summary of the effective doses (ED50) for inhibition of LPS-induced pulmonary neutrophilia and induction of emesis and the therapeutic index derived from these values

## CCOc1cc(C(CS(C)(=O)=O)N2C(=O)c3cccc(NC(C)=O)c3C2=O)ccc1OC (single isomer, unassigned; (+)) [Compound A, (+)-2-[1-(3-ethoxy-4-methoxyphenyl)-2-methylsulfonylethyl]-4-acetylaminoisoindoline-1,3-dione]
Serum TNF-α
  ED50: 0.05 mg/kg
Conscious ferret; 0.1 mg/kg oral
  Ataxia: None
  Backward walking: Mild (3/5)
  Flattened posture: Mild (2/5)
  Lip licking: Mild (4/5)
  Mouth clawing: None
  Panting: None
  Retches: None
  Salivation: None
  Vomits: None
Conscious ferret; 0.3 mg/kg oral
  Ataxia: None
  Backward walking: Mild (4/6)
  Flattened posture: Mild (2/6)
  Lip licking: Mild (3/6)
  Mouth clawing: None
  Panting: None
  Retches: None
  Salivation: None
  Vomits: None
Conscious ferret; 1.0 mg/kg oral
  Ataxia: None
  Backward walking: Mild (4/6)
  Flattened posture: Mild (2/6)
  Lip licking: Mild (6/6)
  Mouth clawing: None
  Panting: None
  Retches: None
  Salivation: None
  Vomits: None
Conscious ferret; 3.0 mg/kg oral
  Ataxia: None
  Backward walking: Moderate (5/8)
  Flattened posture: Marked (7/8)
  Lip licking: Mild (2/8)
  Mouth clawing: Mild (1/8)
  Panting: None
  Retches: None
  Salivation: None
  Vomits: None
Conscious ferret; 10 mg/kg oral
  Ataxia: None
  Backward walking: Marked (6/6)
  Flattened posture: Marked (6/6)
  Lip licking: Moderate (5/6)
  Mouth clawing: Mild (1/6)
  Panting: None
  Salivation: Mild (1/6)
  Vomits: None
Conscious ferret; 10 mg/kg, p.o.
  behavioral changes (severity): mild or moderate
Conscious ferret; 10 mg/kg, p.o., in 2/6 ferrets
  emetic episodes (retching and vomiting): some retching but no frank emesis
Conscious ferret; 30 mg/kg oral
  Ataxia: Mild (3/4)
  Backward walking: Mild (2/4)
  Flattened posture: Marked (4/4)
  Lip licking: Moderate (4/4)
  Mouth clawing: Marked (4/4)
  Panting: Mild (1/4)
  Retches: Marked (3/4)
  Salivation: Moderate (3/4)
  Vomits: Moderate (3/4)
Conscious ferret; 30 mg/kg, p.o.
  behavioral changes (severity): pronounced behavioral changes
Conscious ferret; 30 mg/kg, p.o., in 3/4 animals
  emetic episodes (retching and vomiting): moderate to marked emesis
Conscious ferret; 0.1-3 mg/kg, p.o.
  emetic episodes (retching and vomiting): no emetic episodes
Conscious ferret; 0.1-3 mg/kg, p.o., flattened posture, lip licking and backward walking
  behavioral changes (severity): mild
Conscious ferret; conscious ferret, p.o.
  Threshold emetic dose: 10 mg/kg
Conscious ferret; threshold emetic dose divided by ED50 for pulmonary neutrophilia
  Therapeutic index: 12
